What was measured:
[1] = system: Mus musculus; assay: Toxicity in human MDA-MB-468 cells xenografted CB-17 SCID mouse assessed as reduction in body weight at 25 mg/kg, ip qd for 21 days; assay type: organism-based; design: dose 25 mg/kg, route intraperitoneal; conditions: in vivo, 504 h
[2] = AUC in SCID mouse at 50 mg/kg, ip; assay type: ADME, organism-based; design: dose 50 mg/kg, route intraperitoneal; conditions: plasma
[3] = Plasma protein binding in mouse at […] after 4 hrs by equilibrium dialysis method; assay type: ADME, cell-free; conditions: read-out: PPB
[4] = biological target: Vascular endothelial growth factor receptor 2 (Homo sapiens, UniProt P35968); assay: Inhibition of KDR (unknown origin) by FRET-based homogeneous assay
Vascular endothelial growth factor receptor 2, sequence (P35968 whole entry): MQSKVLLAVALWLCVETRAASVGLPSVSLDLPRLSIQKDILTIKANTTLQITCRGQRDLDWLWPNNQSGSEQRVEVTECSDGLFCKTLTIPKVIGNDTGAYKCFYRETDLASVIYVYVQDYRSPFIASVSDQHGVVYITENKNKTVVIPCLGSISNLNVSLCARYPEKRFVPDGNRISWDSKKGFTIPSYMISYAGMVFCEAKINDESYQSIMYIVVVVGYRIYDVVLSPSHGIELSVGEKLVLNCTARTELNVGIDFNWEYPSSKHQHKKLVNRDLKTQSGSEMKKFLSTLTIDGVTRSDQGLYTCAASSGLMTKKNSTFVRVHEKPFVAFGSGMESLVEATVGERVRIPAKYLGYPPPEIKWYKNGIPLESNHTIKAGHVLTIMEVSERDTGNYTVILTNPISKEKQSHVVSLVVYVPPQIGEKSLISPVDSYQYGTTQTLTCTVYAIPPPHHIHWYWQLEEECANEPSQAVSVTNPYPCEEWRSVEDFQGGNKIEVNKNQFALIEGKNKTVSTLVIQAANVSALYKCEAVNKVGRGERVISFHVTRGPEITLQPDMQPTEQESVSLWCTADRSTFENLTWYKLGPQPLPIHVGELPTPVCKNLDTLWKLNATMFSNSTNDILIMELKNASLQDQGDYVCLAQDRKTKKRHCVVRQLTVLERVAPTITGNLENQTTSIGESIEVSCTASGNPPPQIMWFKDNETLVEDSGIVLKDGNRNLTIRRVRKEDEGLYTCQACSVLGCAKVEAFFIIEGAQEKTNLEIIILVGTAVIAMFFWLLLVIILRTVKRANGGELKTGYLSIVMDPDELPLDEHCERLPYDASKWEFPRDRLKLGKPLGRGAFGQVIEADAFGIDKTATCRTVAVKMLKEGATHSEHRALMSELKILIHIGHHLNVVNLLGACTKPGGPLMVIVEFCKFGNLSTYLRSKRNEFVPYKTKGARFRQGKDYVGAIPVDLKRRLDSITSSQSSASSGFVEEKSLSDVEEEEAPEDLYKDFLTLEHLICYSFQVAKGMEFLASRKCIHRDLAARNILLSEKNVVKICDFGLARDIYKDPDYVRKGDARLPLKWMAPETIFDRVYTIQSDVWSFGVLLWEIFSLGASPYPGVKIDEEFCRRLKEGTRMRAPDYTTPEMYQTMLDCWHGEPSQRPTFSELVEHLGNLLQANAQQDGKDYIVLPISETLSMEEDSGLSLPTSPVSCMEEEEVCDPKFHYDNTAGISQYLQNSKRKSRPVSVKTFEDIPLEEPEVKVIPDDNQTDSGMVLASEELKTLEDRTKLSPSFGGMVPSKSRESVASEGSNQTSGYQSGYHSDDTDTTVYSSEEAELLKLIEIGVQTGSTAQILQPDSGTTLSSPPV

[5] = biological target: Aurora kinase B (Homo sapiens, UniProt Q96GD4); assay: Inhibition of aurora B (unknown origin) by FRET-based homogeneous assay
Aurora kinase B, sequence (Q96GD4 whole entry): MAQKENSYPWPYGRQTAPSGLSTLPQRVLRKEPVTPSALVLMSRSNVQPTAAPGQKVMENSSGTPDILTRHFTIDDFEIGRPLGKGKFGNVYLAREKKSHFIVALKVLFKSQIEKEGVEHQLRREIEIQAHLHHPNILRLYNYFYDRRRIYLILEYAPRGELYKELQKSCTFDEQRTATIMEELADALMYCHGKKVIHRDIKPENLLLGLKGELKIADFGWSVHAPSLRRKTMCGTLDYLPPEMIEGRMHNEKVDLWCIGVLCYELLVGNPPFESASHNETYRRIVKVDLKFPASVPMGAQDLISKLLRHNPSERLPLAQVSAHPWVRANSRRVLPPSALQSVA

[6] = biological target: T1, Aurora kinase A (Homo sapiens, UniProt O14965); assay: Inhibition of aurora A (unknown origin) by FRET-based homogeneous assay
T1 sequence (O14965 whole entry): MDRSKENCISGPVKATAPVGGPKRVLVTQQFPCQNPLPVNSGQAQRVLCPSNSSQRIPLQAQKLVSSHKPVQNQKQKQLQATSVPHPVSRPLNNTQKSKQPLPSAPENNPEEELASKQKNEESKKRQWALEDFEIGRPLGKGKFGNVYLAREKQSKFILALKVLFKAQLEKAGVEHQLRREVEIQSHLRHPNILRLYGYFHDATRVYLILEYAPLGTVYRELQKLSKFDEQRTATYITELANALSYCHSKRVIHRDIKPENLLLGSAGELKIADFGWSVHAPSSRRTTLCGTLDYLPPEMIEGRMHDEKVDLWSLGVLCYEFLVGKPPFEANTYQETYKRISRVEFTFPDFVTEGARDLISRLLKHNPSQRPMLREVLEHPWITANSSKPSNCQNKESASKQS

[7] = Permeability of the compound at pH 7.4 by PAMPA; assay type: ADME; conditions: read-out: permeability
[8] = biological target: Cytochrome P450 2C19 (Homo sapiens, UniProt P33261); assay: Inhibition of CYP2C19 (unknown origin) using MFC as substrate after 30 mins by fluorescence assay; assay type: ADME
Cytochrome P450 2C19, sequence (P33261 whole entry): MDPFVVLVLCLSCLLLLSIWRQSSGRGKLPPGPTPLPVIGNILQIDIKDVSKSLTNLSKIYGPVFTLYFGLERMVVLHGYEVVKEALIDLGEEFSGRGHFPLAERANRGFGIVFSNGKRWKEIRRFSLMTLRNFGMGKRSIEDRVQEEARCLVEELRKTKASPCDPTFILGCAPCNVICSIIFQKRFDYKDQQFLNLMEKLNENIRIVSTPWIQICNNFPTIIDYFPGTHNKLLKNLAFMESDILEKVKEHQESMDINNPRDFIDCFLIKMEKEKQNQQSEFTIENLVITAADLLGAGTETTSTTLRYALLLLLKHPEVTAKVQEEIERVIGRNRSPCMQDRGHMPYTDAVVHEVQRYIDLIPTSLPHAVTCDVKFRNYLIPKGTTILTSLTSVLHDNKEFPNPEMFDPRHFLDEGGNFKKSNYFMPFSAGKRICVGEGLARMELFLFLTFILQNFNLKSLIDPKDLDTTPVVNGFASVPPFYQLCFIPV

[9] = biological target: Cytochrome P450 2D6 (Homo sapiens, UniProt P10635); assay: Inhibition of CYP2D6 (unknown origin) using AMMC as substrate after 30 mins by fluorescence assay; assay type: ADME
Cytochrome P450 2D6, sequence (P10635 whole entry): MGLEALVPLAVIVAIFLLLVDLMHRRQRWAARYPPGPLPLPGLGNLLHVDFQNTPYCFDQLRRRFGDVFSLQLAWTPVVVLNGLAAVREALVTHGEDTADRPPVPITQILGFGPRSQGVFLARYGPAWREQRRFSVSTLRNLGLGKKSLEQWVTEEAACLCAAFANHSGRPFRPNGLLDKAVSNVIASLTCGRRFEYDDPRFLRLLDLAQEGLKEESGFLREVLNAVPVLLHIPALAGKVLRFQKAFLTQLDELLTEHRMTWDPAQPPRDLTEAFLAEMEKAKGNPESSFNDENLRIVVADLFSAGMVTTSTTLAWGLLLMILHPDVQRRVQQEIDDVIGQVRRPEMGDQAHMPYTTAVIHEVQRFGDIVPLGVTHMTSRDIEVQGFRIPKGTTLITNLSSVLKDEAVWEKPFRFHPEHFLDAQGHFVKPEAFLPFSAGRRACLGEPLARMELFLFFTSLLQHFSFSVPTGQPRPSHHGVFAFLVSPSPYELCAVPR

[10] = system: HCC1954; assay: Antiproliferative activity against human HCC1954 cells assessed as growth inhibition after 5 days by SRB assay; assay type: functional; conditions: HCC1954, 120 h
[11] = system: SK-BR-3; assay: Antiproliferative activity against human SKBR3 cells assessed as growth inhibition after 5 days by SRB assay; assay type: functional; conditions: SK-BR-3, 120 h
[12] = biological target: Serine/threonine-protein kinase PLK3 (Homo sapiens, UniProt Q9H4B4); assay: Inhibition of PLK3 (unknown origin) by FRET-based homogeneous assay
Serine/threonine-protein kinase PLK3, sequence (Q9H4B4 whole entry, the tested form may be a part): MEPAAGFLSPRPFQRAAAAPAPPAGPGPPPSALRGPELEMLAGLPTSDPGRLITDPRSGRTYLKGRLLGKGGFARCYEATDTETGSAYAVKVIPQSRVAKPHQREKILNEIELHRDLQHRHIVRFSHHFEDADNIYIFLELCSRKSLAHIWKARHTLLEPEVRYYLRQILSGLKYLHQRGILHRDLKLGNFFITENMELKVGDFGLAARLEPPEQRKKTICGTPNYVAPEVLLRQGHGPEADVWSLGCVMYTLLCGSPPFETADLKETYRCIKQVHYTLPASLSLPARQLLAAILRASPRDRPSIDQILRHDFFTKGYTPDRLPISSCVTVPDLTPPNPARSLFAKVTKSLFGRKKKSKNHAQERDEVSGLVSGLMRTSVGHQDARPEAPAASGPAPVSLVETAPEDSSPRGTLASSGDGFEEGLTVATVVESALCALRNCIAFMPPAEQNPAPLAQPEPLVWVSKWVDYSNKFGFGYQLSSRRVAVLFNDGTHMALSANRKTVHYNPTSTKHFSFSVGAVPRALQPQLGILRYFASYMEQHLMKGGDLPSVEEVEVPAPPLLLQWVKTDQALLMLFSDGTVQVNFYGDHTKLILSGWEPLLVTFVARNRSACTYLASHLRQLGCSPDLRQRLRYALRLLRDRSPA

[13] = biological target: T2, Serine/threonine-protein kinase PLK4 (Homo sapiens, UniProt O00444); assay: Inhibition of N-terminal GST-tagged human PLK4 (1 to 391 amino acids) expressed in Escherichia coli using TMB as substrate after 30 mins by indirect ELISA assay
T2 sequence (O00444 whole entry): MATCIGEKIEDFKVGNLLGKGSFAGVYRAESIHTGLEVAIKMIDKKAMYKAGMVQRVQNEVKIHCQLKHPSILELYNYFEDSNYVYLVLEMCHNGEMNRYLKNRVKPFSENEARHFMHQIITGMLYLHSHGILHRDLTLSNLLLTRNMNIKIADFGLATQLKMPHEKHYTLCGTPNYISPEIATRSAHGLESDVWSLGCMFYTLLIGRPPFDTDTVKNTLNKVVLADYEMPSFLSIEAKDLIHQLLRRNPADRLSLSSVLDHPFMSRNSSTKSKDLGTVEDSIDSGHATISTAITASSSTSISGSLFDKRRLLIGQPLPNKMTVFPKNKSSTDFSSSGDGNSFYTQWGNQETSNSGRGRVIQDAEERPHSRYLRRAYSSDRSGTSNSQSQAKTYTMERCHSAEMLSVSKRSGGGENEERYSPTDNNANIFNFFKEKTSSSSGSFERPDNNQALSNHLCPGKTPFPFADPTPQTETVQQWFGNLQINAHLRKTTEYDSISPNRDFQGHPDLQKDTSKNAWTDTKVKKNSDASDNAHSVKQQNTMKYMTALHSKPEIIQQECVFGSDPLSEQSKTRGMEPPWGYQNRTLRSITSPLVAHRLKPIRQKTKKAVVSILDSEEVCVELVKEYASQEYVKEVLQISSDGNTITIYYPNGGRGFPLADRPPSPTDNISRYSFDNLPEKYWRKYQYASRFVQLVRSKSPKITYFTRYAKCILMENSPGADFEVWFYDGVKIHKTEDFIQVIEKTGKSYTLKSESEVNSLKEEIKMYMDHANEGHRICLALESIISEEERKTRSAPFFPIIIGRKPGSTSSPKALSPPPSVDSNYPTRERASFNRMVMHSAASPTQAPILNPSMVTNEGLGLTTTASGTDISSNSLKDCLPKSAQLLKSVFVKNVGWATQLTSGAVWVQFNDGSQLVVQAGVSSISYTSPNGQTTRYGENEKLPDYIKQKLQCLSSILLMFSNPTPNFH

AUC [2]: 190 ng·h/mL
fraction unbound at 4 h [3]: 0.01
IC50 [4]: 480 nM
IC50 [5]: 210 nM
IC50 [6]: 370 nM
Papp [7]: 164 ×10⁻⁶ cm/s
IC50 [8]: 1600 nM
IC50 [9]: > 10 µM
GI50 [10]: 2300 nM
GI50 [11]: 2300 nM
IC50 [12]: > 10 µM
IC50 [13]: 0.61 nM
SMILES: COc1ccc2c(c1)/C(=C\c1ccc3c(/C=C/c4ccc(N5CCN(C)CC5)nc4)n[nH]c3c1)C(=O)N2
Activity [1]: Non-toxic

Source: ChEMBL document CHEMBL2406977, “The discovery of PLK4 inhibitors: (E)-3-((1H-Indazol-6-yl)methylene)indolin-2-ones as novel antiproliferative agents” (J Med Chem, 2013)
